Reference: patent US7118895B2, “Process for producing aglycon by using diglycosidase and flavor-improved food containing the aglycon and converting agent to be used in the process” (Amano Enzyme Inc., priority 2000, dated 2006)

Columns and labels:
[1] = Effective amount of Amylase AD “Amano” 1 accelerating the conversion into aglycon isoflavones by diglycosidase; type: biochemical; details: Amylase AD “Amano” 1 at 0.005% (w/v) with diglycosidase 0.1% (w/v); roasted soy flour 30% (w/v), pH 5.0, 50° C., 3 hours
Description: Roasted soy flour (manufactured by Fuji Shokuhin K.K.) was suspended into 0.1 M sodium acetate adjusted to pH 3.15, the substrate concentration was adjusted to 30% (w/v), and the pH of the solution to 5.0. The suspension was pre-incubated at 50° C. for 1 hour, whereby the temperature of the suspension was elevated to 50° C. To the suspension were added diglycosidase so as to be a final concentration of 0.1% (w/v) (0.3 AU) and Amylase AD “Amano” 1 (manufactured by Amano Enzyme Innc.) so as to be 0.1, 0.05, 0.01, 0.005, and 0.0001% (w/v). The whole was reacted at 50° C. for 3 hours and the change of isoflavone composition was analyzed by HPLC.

[2] = system: Purified diglycosidase; assay: Influence of free glucose on diglycosidase activity; type: biochemical, Penicillium multicolor IAM7153; details: isolated aglycon amount at glucose 0% and 0.5 hour = 100%
Description: Purified diglycosidase was diluted with 20 mM acetate buffer of pH 4.0 to prepare a 0.75 AU/mL enzyme solution.
With a glucose solution was mixed 10 μL of each 2 mM substrate solution described in Example 2, and 20 mM acetate buffer of pH 4.0 was added thereto to be a liquid volume of 210 μL. Further, 40 μL of the enzyme solution was added and reaction was carried out at a final liquid volume of 250 μL. Adjustment of the glucose solution to be added allows glucose to exist in the reaction mixture in the range of 0 to 20%. The reaction was carried out at 55° C. and the existence of isoflavone glycosides and aglycon isoflavones was detected by HLPC at 0, 0.5, 1, and 3 hours of the reaction.

[3] = system: Diglycosidase derived from P. multicolor; assay: Reactivity toward various isoflavone glycosides (HPLC); type: biochemical, Penicillium multicolor; design: glucoside / aglycon: unit not given here; details: 55 °C, pH 4.0
Description: (§1) Diglycosidase was diluted with an acetate buffer of pH 4.0 to prepare a 0.75 AU/mL enzyme solution. As references, a similar operation was conducted using β-glucosidase (manufactured by Fluka) derived from Aspergillus niger, β-glucosidase (manufactured by Sigma) derived from almond, β-xylosidase derived from pectinase G (manufactured by Amano Enzyme Inc.). Each of purified products of isoflavone glycosides (glycitin, acetylglycitin, malonylglycitin, daidzin, acetyldaidzin, malonyldaidzin, genistin, acetylgenistin, malonylgenistin, all manufactured by Nacalai Tesque, Inc.) was dissolved in methanol to prepare each 2 mM substrate solution. The reaction was carried out by mixing 10 μL of a substrate solution, 200 μL of 20 mM acetate buffer (pH 4.0), and 40 μL of each purified enzyme solution at a total liquid volume of 250 μL. The reaction was carried out at 55° C. and isolation of an aglycon isoflavone from an isoflavone glycoside in the reaction mixture was detected by HLPC at 0, 1, 3, and 6 hours of the reaction.
(§2) To the reaction mixture was added 700 μL of ethanol, followed by stirring and ultrasonication. After centrifugation at 15,000 rpm and 4° C. for 10 minutes, the supernatant was filtered through a filter and then the filtrate was applied to HPLC.
(§3) The isoflavone glycoside and aglycon isoflavone contained in the filtrate was separated and detected by a high performance liquid chromatography (HPLC, Shimadzu CLASS LC-10 system) using TOSOH TSK gel ODS-80TM column (manufactured by Tosoh Corporation). […] The absorbance at 260 nm was detected by a UV detector (Shimadzu, SPD-10AV). Using purified products (manufactured by Nacalai Tesque, Inc.) of the above isoflavone glycosides and aglycon isoflavones, the isoflavone glycoside and aglycon isoflavone were quantitatively determined according to a calibration curve method. By the way, unless otherwise stated, the measuring conditions of HPLC herein mean those described in the example.

[4] = system: Diglycosidase derived from A. fumigatus; assay: as above; type: biochemical, Aspergillus fumigatus; design: unit not given here; details: 55 °C, pH 4.0
Description: as §1, §2, §3

[5] = system: β-Glucosidase derived from A. niger; assay: as above; type: biochemical, Aspergillus niger; design: glucoside / aglycon: unit not given here; details: 55 °C, pH 4.0
Description: as §1, §2, §3

Compound: O=c1c(-c2ccc(O)cc2)coc2cc(O)ccc12 [daidzein]
- increase of isolated aglycon versus diglycosidase alone [1]: 1.2 fold

Compound: O=c1c(-c2ccc(O)cc2)coc2cc(O)cc(O)c12 [genistein]
- increase of isolated aglycon versus diglycosidase alone [1]: 1.20 fold

Compound: COc1cc2c(=O)c(-c3ccc(O)cc3)coc2cc1O [glycitein]
- increase of isolated aglycon versus diglycosidase alone [1]: 1.23 fold

Compound: O=C(O)CC(=O)OC[C@H]1O[C@@H](Oc2ccc3c(=O)c(-c4ccc(O)cc4)coc3c2)[C@H](O)[C@@H](O)[C@@H]1O [malonyldaidzin, 6″-O-malonyldaidzin]
- Isolation of isoflavone aglycons by diglycosidase in presence of glucose ([2]; Glucose concentration 0 %): 100%
- Isolation of isoflavone aglycons by diglycosidase in presence of glucose ([2]; Glucose concentration 2 %): 125.3%
- Isolation of isoflavone aglycons by diglycosidase in presence of glucose ([2]; Glucose concentration 4 %): 132.1%
- Isolation of isoflavone aglycons by diglycosidase in presence of glucose ([2]; Glucose concentration 8 %): 125.4%
- Isolation of isoflavone aglycons by diglycosidase in presence of glucose ([2]; Glucose concentration 20 %): 98.1%
- aglycon ([3]; Reaction time 0 h): 0
- glucoside ([3]; Reaction time 0 h): 100
- aglycon ([3]; Reaction time 1 h): 50.8
- glucoside ([3]; Reaction time 1 h): 49.2
- aglycon ([3]; Reaction time 3 h): 60.1
- glucoside ([3]; Reaction time 3 h): 39.9
- aglycon ([3]; Reaction time 6 h): 61.5
- glucoside ([3]; Reaction time 6 h): 38.5
- aglycon ([4]; Reaction time 0 h): 0
- glucoside ([4]; Reaction time 0 h): 100
- aglycon ([4]; Reaction time 1 h): 10
- glucoside ([4]; Reaction time 1 h): 90
- aglycon ([4]; Reaction time 3 h): 20.5
- glucoside ([4]; Reaction time 3 h): 79.5
- aglycon ([4]; Reaction time 6 h): 32.3
- glucoside ([4]; Reaction time 6 h): 67.7
- aglycon ([5]; Reaction time 0 h): 0
- glucoside ([5]; Reaction time 0 h): 100
- aglycon ([5]; Reaction time 1 h): 4.5
- glucoside ([5]; Reaction time 1 h): 95.5
- aglycon ([5]; Reaction time 3 h): 9.3
- glucoside ([5]; Reaction time 3 h): 90.7
- aglycon ([5]; Reaction time 6 h): 16
- glucoside ([5]; Reaction time 6 h): 84

Compound: O=C(O)CC(=O)OC[C@H]1O[C@@H](Oc2cc(O)c3c(=O)c(-c4ccc(O)cc4)coc3c2)[C@H](O)[C@@H](O)[C@@H]1O [malonylgenistin, 6″-O-malonylgenistin]
- Isolation of isoflavone aglycons by diglycosidase in presence of glucose ([2]; Glucose concentration 0 %): 100%
- Isolation of isoflavone aglycons by diglycosidase in presence of glucose ([2]; Glucose concentration 2 %): 152%
- Isolation of isoflavone aglycons by diglycosidase in presence of glucose ([2]; Glucose concentration 4 %): 164.7%
- Isolation of isoflavone aglycons by diglycosidase in presence of glucose ([2]; Glucose concentration 8 %): 163.5%
- Isolation of isoflavone aglycons by diglycosidase in presence of glucose ([2]; Glucose concentration 20 %): 139.5%
- aglycon ([3]; Reaction time 0 h): 0
- glucoside ([3]; Reaction time 0 h): 100
- aglycon ([3]; Reaction time 1 h): 74.2
- glucoside ([3]; Reaction time 1 h): 25.8
- aglycon ([3]; Reaction time 3 h): 82.1
- glucoside ([3]; Reaction time 3 h): 17.9
- aglycon ([3]; Reaction time 6 h): 82.3
- glucoside ([3]; Reaction time 6 h): 17.7
- aglycon ([4]; Reaction time 0 h): 0
- glucoside ([4]; Reaction time 0 h): 100
- aglycon ([4]; Reaction time 1 h): 2.4
- glucoside ([4]; Reaction time 1 h): 97.6
- aglycon ([4]; Reaction time 3 h): 5.2
- glucoside ([4]; Reaction time 3 h): 94.8
- aglycon ([4]; Reaction time 6 h): 8.2
- glucoside ([4]; Reaction time 6 h): 91.8
- aglycon ([5]; Reaction time 0 h): 0
- glucoside ([5]; Reaction time 0 h): 100
- aglycon ([5]; Reaction time 1 h): 3.1
- glucoside ([5]; Reaction time 1 h): 96.9
- aglycon ([5]; Reaction time 3 h): 7
- glucoside ([5]; Reaction time 3 h): 93
- aglycon ([5]; Reaction time 6 h): 12.1
- glucoside ([5]; Reaction time 6 h): 87.9

Compound: COc1cc2c(=O)c(-c3ccc(O)cc3)coc2cc1O[C@@H]1O[C@H](COC(=O)CC(=O)O)[C@@H](O)[C@H](O)[C@H]1O [malonylglycitin, 6″-O-malonylglycitin]
- Isolation of isoflavone aglycons by diglycosidase in presence of glucose ([2]; Glucose concentration 0 %): 100%
- Isolation of isoflavone aglycons by diglycosidase in presence of glucose ([2]; Glucose concentration 2 %): 121.4%
- Isolation of isoflavone aglycons by diglycosidase in presence of glucose ([2]; Glucose concentration 4 %): 127.6%
- Isolation of isoflavone aglycons by diglycosidase in presence of glucose ([2]; Glucose concentration 8 %): 128.6%
- Isolation of isoflavone aglycons by diglycosidase in presence of glucose ([2]; Glucose concentration 20 %): 116.4%
- aglycon ([3]; Reaction time 0 h): 0
- glucoside ([3]; Reaction time 0 h): 100
- aglycon ([3]; Reaction time 1 h): 78.3
- glucoside ([3]; Reaction time 1 h): 21.7
- aglycon ([3]; Reaction time 3 h): 84.5
- glucoside ([3]; Reaction time 3 h): 15.5
- aglycon ([3]; Reaction time 6 h): 86
- glucoside ([3]; Reaction time 6 h): 14
- aglycon ([4]; Reaction time 0 h): 0
- glucoside ([4]; Reaction time 0 h): 100
- aglycon ([4]; Reaction time 1 h): 0.4
- glucoside ([4]; Reaction time 1 h): 99.6
- aglycon ([4]; Reaction time 3 h): 0.8
- glucoside ([4]; Reaction time 3 h): 99.2
- aglycon ([4]; Reaction time 6 h): 1.4
- glucoside ([4]; Reaction time 6 h): 98.6
- aglycon ([5]; Reaction time 0 h): 0
- glucoside ([5]; Reaction time 0 h): 100
- aglycon ([5]; Reaction time 1 h): 1.2
- glucoside ([5]; Reaction time 1 h): 98.8
- aglycon ([5]; Reaction time 3 h): 4.4
- glucoside ([5]; Reaction time 3 h): 95.6
- aglycon ([5]; Reaction time 6 h): 9.1
- glucoside ([5]; Reaction time 6 h): 90.9
